In PubChem BioAssay AID179 (DTP/NCI, 2004) one finds EC50, IC50 and outcome data, which are given here for 53 compounds.

For the assay, the system named is CEM cells HIV-1 protection, formazan growth assay. Briefly: NCI AIDS Antiviral Assay. To be noted: for IC50: measured here: growth of uninfected CEM cells. The procedure, abridged: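 Soluble formazan readout of cell growth; CEM cells ± HIV-1; 5 drug concs. ≥50% protection → retest; ≥50% again = moderately active; reproducible 100% = confirmed active.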

Values joined by “and” are separate entries in the source; they are usually repeats but may differ in a detail not shown here. Equal values may be shown once. Active and inactive are the calls of the source.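 Rule for the calls: active = compounds giving half or more protection of infected cells from virus-caused growth loss, again on retest; inactive = the rest.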 Bounds are passed on as bounds.

For the compound `CCN(C(=O)N[C@@H](CC(C)C)C(=O)NCC(=O)OC)c1ccccc1`, the EC50 was > 200 µM and the half-inhibitory concentration (IC50) was 110 µM.
For `C=CCP(=O)(CC=C)C(Cl)Cl` the same measures were > 200 µM and > 200 µM.
In the same order, the values of `C[N+]1(C)C/C(=C\C=C\c2ccccc2)C(=O)/C(=C/C=C/c2ccccc2)C1` are > 7.76 µM and > 7.76 µM.
Regarding `O=C1CCCCCCCCCCC1CN(Cc1ccccc1)Cc1ccccc1` (configuration not stated), the result was inactive.
`COc1cc(/C=N/NC2=NCCN2)ccc1O`: the EC50 was > 200 µM and the IC50 was > 200 µM.
As for `Nc1nc(=O)n(C2CCC(CO)O2)cc1F` (configuration not stated), the EC50 was 0.151 µM and the half-inhibitory concentration (IC50) came to 32.4 µM.
In the same order, the values of `CCOC(=O)N1N=C(c2ccccc2)OC2(N3CCOCC3)CCC(C(C)(C)C)CC12` (configuration not stated) are 30.2 µM and 31.6 µM.
For `CN1C=Nc2c(ncn2C2CCC(CO)O2)C1O` (configuration not stated) the same measures were > 200 µM and > 200 µM.
As to `C/C(=N\NC(N)=O)c1ccccc1`, the outcome was inactive.
`COc1cc([C@@H]2c3cc4c(cc3[C@@H](OC3OC5CO[C@@H](c6cccs6)OC5C(O)C3O)[C@H]3COC(=O)[C@H]23)OCO4)cc(OC)c1O` (some centres not stated): the EC50 was > 0.398 µM and the half-inhibitory concentration (IC50) came to 0.00174 µM.
In the same order, the values of `CCOC(=O)C(=C/C=C/NCCc1c[nH]c2ccccc12)C(=O)OCC` are > 10.7 µM and > 10.7 µM.
In the same order, the values of `N#Cc1c[nH]c(=O)[nH]c1=O` are > 200 µM and > 200 µM.
For `C[C@H](CCC(=O)O)[C@H]1CC[C@H]2[C@@H]3[C@@H](O)C[C@@H]4C[C@H](O)CC[C@]4(C)[C@H]3C[C@H](O)[C@]12C` the same measures were > 200 µM and > 200 µM.
As for `CCCNC(=S)NNC(=O)CSc1nc(-c2ccccc2)c(-c2ccccc2)[nH]1`, the EC50 was > 117 µM and the IC50 was found to be 57.5 µM.
For `O=C(O)c1nn(-c2ccccc2-c2n[nH]c(=O)[nH]c2=O)c(=O)[nH]c1=O` the same measures were > 200 µM and > 200 µM.
For `C#CCCCCC#CC1CCCC1C1=CC(=O)c2ccccc21` (configuration not stated) the same measures were > 100 µM and 6.03 µM.
For `COC(=O)[C@H](Cc1ccccc1)NC(=O)N(CCC#N)CCCCN(CCC#N)C(=O)N[C@@H](Cc1ccccc1)C(=O)OC` the same measures were > 200 µM and 115 µM.
Consider `CC(=O)c1sc2c(c1OC(=O)c1ccco1)c(=O)n(-c1ccccc1)c(=S)n2-c1ccccc1`, for which the EC50 was > 200 µM and the IC50 is 9.77 µM.
In the same order, the values of `CC(CCOc1c2ccoc2cc2oc(=O)ccc12)C1=CC(=O)C(C)(C)O1` (configuration not stated) are > 200 µM and > 200 µM.
In the same order, the values of `CN(C)CCn1c(=O)c2ccc(NCCN3CCNCC3)c3c(=O)c4ccccc4n(c1=O)c23` are > 200 µM and 0.0631 µM.
Consider `Clc1ccc(NC(Nc2ccc(Cl)cc2)C(Cl)(Cl)Cl)cc1`, for which the outcome was inactive.
The same measure, in the same setting: with `Cc1cc2nc3c(C(OC4OC(CO)C(O)C(O)C4O)C(O)CO)nn(-c4ccc(F)cc4)c3nc2cc1C` (configuration not stated) the entry was “inactive”.
`Nc1nc(=S)c2ncn(C3CC(O)C(CO)O3)c2[nH]1` (configuration not stated): the EC50 is > 891 µM; the half-inhibitory concentration (IC50) is 0.457 µM and 2.09 µM.
Regarding `S=C1N(c2ccc(Cl)cc2)C2=C(N=Nc3cc(Cl)ccc3Cl)C(=Nc3ccccc3S2)N1c1ccccn1`, the EC50 is > 40.7 µM and the IC50 was > 40.7 µM.
Consider `CCCc1cc(=O)oc2c3c(c4c(c12)OC(C)(C)CC4)O[C@H](C)C(C)C3O` (some centres not stated), for which the EC50 is > 200 µM and the concentration for half-maximal inhibition (IC50) came to 25.1 µM.
For `CC(C)(C)C1CC[C@H]2c3c([nH]c4ccc(Br)cc34)[C@H]3C(=O)N(c4ccccc4)C(=O)[C@H]3[C@H]2C1` (some centres not stated) the same measures were > 7.24 µM and > 7.24 µM.
In the same order, the values of `CC(=O)NNc1nc(C)c(C(/C=C/c2ccc3c(c2)OCO3)=N/Nc2ccccc2)s1` are > 56.2 µM and > 56.2 µM.
In the same order, the values of `Cc1ccc(S(=O)(=O)C(C#N)c2nc3ccccc3nc2N2CCOCC2)cc1` (configuration not stated) are > 16.6 µM and > 16.6 µM.
Consider `CCOC(=O)C1C(c2ccccc2)C(C(=O)OCC)C(O)(C(F)(F)F)OC1(O)C(F)(F)F` (configuration not stated), for which the outcome was inactive.
As to `CCOc1cc2c(cc1Cc1ccc(OC)cc1)OCO2`, the EC50 was > 91.2 µM and the half-inhibitory concentration (IC50) was 0.631 µM.
For `CCCCc1ccc(Nc2nc(Cl)c3ncn(COCCOC(C)=O)c3n2)cc1`, the EC50 is > 200 µM and the IC50 came out at 13.8 µM.
In the same order, the values of `COC(=O)C1(O)C(c2ccccc2)=NC2(C)CCCC21` (configuration not stated) are > 200 µM and > 200 µM.
Take `CCOC(=O)c1cc(OC(=O)CC)c2c(OC)ccc(OC)c2c1`: the result was inactive.
Turning to `Cc1ccc(C2NC(=O)N3C(c4ccc(C)cc4)NC(=O)N23)cc1` (configuration not stated), the EC50 was > 200 µM and the 50% inhibitory concentration (IC50) was 30.2 µM.
On to `COc1ccc(CC2(Cc3ccc(OC)cc3)CCOC2=O)cc1`, for which the EC50 is > 21.9 µM and the IC50 was > 21.9 µM.
Consider `O=S1OC[C@H](CCCl)O1` (some centres not stated), for which the EC50 is > 200 µM and the IC50 is > 200 µM.
Consider `CC1CC(N)=C(C#N)C1(C#N)C#N` (configuration not stated), for which the EC50 is > 200 µM and the IC50 came to 138 µM.
In the same order, the values of `COc1cc2c(c(O)c1C)C(=O)CC(c1ccccc1)O2` (configuration not stated) are > 35.5 µM and > 35.5 µM.
For `CC(C)(C)C1CCC(N=C(N)CSS(=O)(=O)O)CC1` (configuration not stated) the same measures were > 200 µM and 24 µM.
In the case of `N#CC12CCCC(=O)N1c1ccccc1S2` (configuration not stated), the EC50 was > 195 µM and the concentration for half-maximal inhibition (IC50) was determined as 105 µM.
For the compound `COc1cc(OC)c(C#N)c(OC)c1C`, the outcome was inactive.
For `COc1cc2c(cc1OC)c1c(OC)c(OC)cc3c1c1c2sc(=S)n1CC3`, the outcome was inactive.
Regarding `CC1(C)OC2OC(C(O)COC(=O)c3ccccc3)C(F)C2O1` (configuration not stated), the EC50 was > 209 µM and the concentration for half-maximal inhibition (IC50) was > 209 µM.
As for `Cc1[nH]c(=O)n2c(C)nnc2c1C(=O)Nc1cc(Cl)cc(Cl)c1`, the result was inactive.
With `CC1(C)CC(=O)C2=C(C1)NC(SSC1=C(C#N)C(c3ccccc3)C3=C(CC(C)(C)CC3=O)N1)=C(C#N)C2c1ccccc1` (configuration not stated), the EC50 is > 112 µM and the half-inhibitory concentration (IC50) was 15.5 µM.
In the same order, the values of `CCOC(=O)c1c(-c2ccc(OC)c(O)c2)c(C#N)c(=S)n(C2OC(CO)C(O)C(O)C2O)c1-c1ccccc1` (configuration not stated) are > 200 µM and > 200 µM.
Consider `CC1CCC/C1=C(/I)C(=O)c1ccccc1` (configuration not stated), for which the EC50 was > 200 µM and the IC50 is 58.9 µM.
For `CCOC(=O)C(C)(C(C)=O)c1nc(=S)[nH]c(=S)[nH]1` (configuration not stated) the same measures were > 200 µM and 95.5 µM.
Turning to `Nc1cc(Cl)cc(Cl)c1O`, the EC50 is > 162 µM and the half-maximal inhibitory concentration (IC50) amounted to 120 µM.
For `CN=C1Nc2ccccc2C(=S)N2CSC[C@@H]12`, the EC50 was > 200 µM and the IC50 was > 200 µM.
`Nc1ccn(C2SC(CO)CC2F)c(=O)n1` (configuration not stated): the EC50 is > 25.1 µM and the IC50 was > 25.1 µM.
As for `C/C(CN1C(=O)c2ccccc2C1=O)=N\NS(=O)(=O)c1ccccc1`, the EC50 was > 20.4 µM and the half-inhibitory concentration (IC50) was > 20.4 µM.
For the compound `O=C(CC(=O)c1ccccc1)CC(O)(c1ccccc1)c1ccccc1`, the EC50 is > 11 µM and the half-maximal inhibitory concentration (IC50) is > 11 µM.
